Measurements: patent publication US20160214958A1, “COMPOUNDS AND USE FOR TREATING CANCER” (GLIONOVA AB, priority 2013, published 2016)

Experiments:
[1] = test system: U3013MG GSCs injected into brain ventricle; assay: Zebrafish xenograft in vivo efficacy assay
Protocol: (§1) A xenotransplantation model for GBM in zebrafish was developed to test the capacity of the 17 hits to prevent tumor formation in vivo. Three thousand U3013MG GSCs labeled with cell tracker red were injected intracranially into the ventricle of 48-52 hpf larvae. Each of the 17 hits were administered to the egg water at the lowest effective in vitro cytotoxic concentration identified and tumor development assessed 10 days later. This assay allowed rapid evaluation of the compounds in an in vivo setup, features such as the acute/chronic toxicity effect of the compounds on zebrafish and the transplanted cells, transplanted cell proliferation and migration of cells into brain parenchyma, compounds penetrance into the zebrafish tissue were all parallely evaluated. […] Cardiovascular toxicity was assessed using a recently established model based on frequency spectral analysis of heart beating in ex-vivo adult zebrafish hearts (Kitambi et al., (2012) BMC Physiol. 12, 3).
The zebrafish xenografts glioblastoma model was developed for quantitative analyses on the efficacy of S10 to inhibit tumor development and for quantification of infiltration of cells in the host brain. […] The size of the tumor was determined by quantification of the area, fluorescence level and infiltration by measuring the average distance of infiltrating cells from the original tumor mass. […]

[2] = test system: glioma stem cell line U3013; assay: In vitro cancer cell and CSC viability assay (ATP quantification, CellTiterGlo); assay type: cell-based; details: Homo sapiens; 3000 cells/cm2, after 24 hours; read-out: EC50, viability of GSCs
[3] = test system: histone H3 trimethylation at lysine 27 (H3K27me3); assay: Western blot of GSC for H3K27me3; assay type: cell-based, human; details: GSC treated for 5 min to 26 hours
Protocol: Cell extracts were immunoblotted for phosphor-MKK4 (P-MKK4) and histone H3 trimethylation at lysine 27 (H3K27me3).
Whole-cell extracts were prepared in SDS-buffer (25 mM Tris-HCl, pH 7.5, 1 mM EDTA, protease inhibitor cocktail (Roche), and phosphatase inhibitors [2 mM sodium orthovanadate, 20 mM beta-glycerolphosphate], and 1% SDS). The samples were analysed by western blot as described previously (Aranda et al. (2008) Mol Cell Biol, 28, 5899-5911) with the following antibodies: anti-Histone H3 (Abcam), antitrimethyl(Lys27)-Histone H3 (Millipore) and anti-phospho(S257/Thr261)-SEK1/MKK4 (R&D Systems).

[4] = test system: ex-vivo adult zebrafish hearts; assay: Cardiotoxicity, ex vivo adult zebrafish hearts; details: frequency spectral analysis of heart beating
Protocol: as §1
A zebrafish model was used to assess the developmental and cardiac toxicity of advanced hits from the screen. […] The embryos were monitored every day and allowed to grow for 5 days before the phenotype was recorded. […] Adult hearts from male zebrafish were exposed to compounds and the effect on the heart beat was recorded and analysed using developed methods (Kitambi et al., (2012) BMC Physiol. 12, 3).

In the case of `OC(c1cc(-c2ccc(Cl)cc2)nc2ccccc12)C1CCCCN1` (racemic) [Compound S10, (2-(4-chlorophenyl)quinolin-4-yl)(piperidin-2-yl)methanol], the tumor growth ([1]; 15 μM applied to the aquarium water for 10 days) is reported as “marked attenuation of tumor growth”, the tumor size ([1]; lowest effective in vitro cytotoxic concentration in egg water, assessed 10 days later) is reported as “markedly reduced tumor size” and the EC50 [2] is reported as 2.36 µM. The “effect on H3K27me3” value [3] was “lack of inhibition effects” and the “cardiac toxicity, heart beating” value [4] was “small or no effects”.
